Experimental data: patent publication US9446064B2, “Combination therapy for treating cancer” (Epizyme, Inc., priority 2013, dated 2016)

Assays:
MV4-11 (MLL-AF4) cells = assay: Combination proliferation study with Compound A2 (Cell Titer Glo, Chou-Talalay combination index); assay type: cell-based; conditions: 7 day cotreatment
Description: (§1) The acute myelogenous leukemia cell lines MV4-11 (MLL-AF4) and MOLM-13 (MLL-AF9) were obtained from American Type Culture Collection (ATCC; Rockville, Md.) and Deutsche Sammlung von Mikroorganismen and Zellkulturen (DSMZ; Braunschweig, Germany) respectively.
(§2) Initial proliferation studies were performed to determine the IC50 of a given compound in each cell line.
(§3) Compounds were evaluated for synergy in the co-treatment phase by testing the compounds in a concentration range which was bracketed around their IC50 values. […] DMSO concentration was kept at 0.1% v/v.
(§4) Further, strong synergism is achieved when the CI value falls below 0.3.

MOLM-13 (MLL-AF9) cells = assay: as above; assay type: cell-based; conditions: 7 day cotreatment
Description: as §1, §2, §3, §4

Row | SMILES | Combination effect with Compound A2 (combination index) (MV4-11 (MLL-AF4) cells) | Combination effect with Compound A2 (combination index) (MOLM-13 (MLL-AF9) cells)
1 | CC1(C)CCC(c2ccc(Cl)cc2)=C(CN2CCN(c3ccc(C(=O)NS(=O)(=O)c4ccc(N[C@H](CCN5CCOCC5)CSc5ccccc5)c(S(=O)(=O)C(F)(F)F)c4)cc3)CC2)C1 [Navitoclax] | synergy | synergy
2 | Nc1ccn([C@@H]2O[C@H](CO)[C@@H](O)[C@@H]2O)c(=O)n1 [Ara-C] | Synergy (A combination index less than one indicates synergy) | 
3 | CC(C)(C)c1cc(NC(=O)Nc2ccc(-c3cn4c(n3)sc3cc(OCCN5CCOCC5)ccc34)cc2)no1 [Quizartinib] | synergy | 
4 | COc1cc2c(cc1-c1c(C)noc1C)ncc1[nH]c(=O)n([C@H](C)c3ccccn3)c12 [IBET-151] | Synergy (A combination index less than one indicates synergy) | 
5 | N[C@@H]1C[C@H]1c1ccccc1 (racemic) [Tranylcypromine] | synergy | synergy
